Experimental data taken from paper PMC10201506 (Signal Transduction and Targeted Therapy, 2023).

Key:
SARS-CoV-2 delta variant [1] = tested on: SARS-CoV-2 delta variant; parameters: species or system K18-hACE2 mice; conditions: mouse, in vivo
[2] = tested on: SARS-CoV-2 Omicron BA.1 variant; assay: microbe, parasite or virus in culture; type: cell-based; conditions: Severe acute respiratory syndrome coronavirus 2, Vero C1008, 24 h, read-out: EC50 Omicron BA.1 variant replication
SARS-CoV-2 Delta variant [3] = assay: microbe, parasite or virus in culture; type: cell-based; conditions: Severe acute respiratory syndrome coronavirus 2, Vero C1008, 24 h, read-out: EC50 Delta variant replication

O=C(c1cc(=O)[nH]c2ccccc12)N1CCN(c2ccc(Cl)c(Cl)c2)CC1CN1CCOCC1 (centres unmarked) [JZD-07, 4-(4-(3,4-Dichlorophenyl)-2-(morpholinomethyl)piperazine-1-carbonyl)quinolin-2(1H)-one]
immunohistochemistry staining of viral nucleocapsid protein in lungs (SARS-CoV-2 delta variant [1]): suppressed viral titer in mice lungs
reduction of viral copy loads of the lung vs vehicle (SARS-CoV-2 delta variant [1]): ~1.0 log
reduction of viral titers of the lung vs vehicle (SARS-CoV-2 delta variant [1]): 2.0 log
EC50 [2]: 6.03 µM
EC50 (SARS-CoV-2 Delta variant [3]): 7.24 µM
